Laboratory results as given in US20200121651A1, “Pramipexole for Use in the Treatment of Pain” (STC.UNM, priority 2018, published 2020).
Like-named read-outs stand apart in the source and are kept apart here.

Columns and labels:
allodynia in CCI mice = settings: for effect on allodynia (hindpaw absolute threshold): male CCI mice, i.v. injection day 10 post surgery, identical ipsilateral and contralateral
Method: The current report analyzed adult (10-16 week old) male C57BL/6 mice (wildtype; FFID: IMSR_JAX:000664) purchased from Jackson Laboratories (Bar Harbor, Me., USA). Mice were maintained on a standard 12:12 light/dark cycle (lights on from 0600 hours to 1800 hours) in a temperature controlled environment (23°±2° C.) for the duration of the study. Additionally, mice were housed in groups of 4-5 mice/cage, of which all mice were routinely monitored by the animal care staff under the direction of the institutional veterinarian, fed standard rodent chow and water ad libitum, with cages and bedding changed every 7 days. All procedures were approved by the Institutional Animal Care and Use Committee (IACUC) of the University of New Mexico Health Sciences Center, conducted in accordance to the NIH Guidelines for the Care and Use of Laboratory Animals, and closely adhered to guidelines from the International Association for the Study of Pain for the use of animals in research (Foundation for Biomedical Research, The Biomedical Investigator's Handbook for Researchers Using Animal Models. Washington, D.C.: FBR, 1987. WWW: http://www.fbresearch.org/).
This study utilized a modified version of a well-established rat peripheral nerve injury model in which pathological sensitivity to light touch, clinically termed allodynia, is induced through a chronic constriction injury (CCI) (Bennett and Xie 1988). […] Under isoflurane anesthesia (1.5-2.0% volume in oxygen, 2.0 l/min), the dorsal left thigh was shaved and cleaned using 70% Ethanol (EtOH) that was air dried prior to surgery. Utilizing a small incision over the posterior thigh, remaining […] below the femur bone, from hip bone to the patella, the muscle fascia of the mouse was exposed. Using aseptic procedures, a blunt dissection was performed to carefully isolate the sciatic nerve by separating the overlying muscular fascia. Sterile plastic probes were then used to locate and lift the sciatic nerve from its pocket within the muscle tissue. Mice were then subjected to unilateral loose ligation of the sciatic nerve with three 5-0 chromic gut sutures (Ethicon; Somerville, N.J., Cat #634G) which were snugly tied around the sciatic nerve (avoiding pinching) proximal to the trifurcation with 1.5 mm spacing between sutures. Throughout the duration of the surgery, sterile 0.9% isotonic saline (Hospira; Cat #NDC 0409-4888-03) was irrigated over the sciatic nerve to prevent dehydration. Sham surgery followed the same CCI surgical procedure identically but without ligation. Upon ligation, the sciatic nerve was gently placed back into its correct anatomical position using the sterile plastic probes, and the overlying muscle fascia was stitched closed using one 4-0 sterile silk sutures (Ethicon; Somerville, N.J., Cat #83G). Wound clips (Kent Scientific Corp.; Cat #INS750344) were then utilized to seal the incision closed at which point the surgical procedure was complete. […] Body weight was monitored prior to and after surgery.
Upon a 7-14 day acclimation to the testing environment, mice were subjected to a habituation period. The habituation period included placing the mice atop a testing rack within the first 4 hours of the light cycle (lights on from 0600 hours to 1800 hours) in a sound and temperature (23°±2° C.) controlled environment, allowing full access to the plantar hindpaw. Mice were exposed to four separate habitation periods for approximately 45 min/day.

[1] = system: TLR4-mediated IL-1β release in THP-1 cells; settings: for IL-1β release in the presence of LPS stimulation / basal cellular levels of IL-1β: THP-1 cells; for basal cellular levels of IL-1β: pramipexole alone, no LPS
Method: The assay was performed according to the manufacturer's instructions.

[2] = CCI mice, i.v. day 10 post surgery

CCCN[C@H]1CCc2nc(N)sc2C1 [Pramipexole, (6S)-6-N-propyl-4,5,6,7-tetrahydro-1,3-benzothiazole-2,6-diamine]
efficacy on hindpaw withdraw thresholds, hours 24-72 post-injection (allodynia in CCI mice; CCI mice, i.v. 0.5 μg): complete dissipation in the efficacy
time post-injection by which mice returned to allodynia (allodynia in CCI mice; CCI mice, i.v. 0.5 μg): ≤ 24 h
time to complete reversal from allodynia (allodynia in CCI mice; CCI mice, i.v. 0.5 μg, day 10 post-surgery): ≤ 2 h
efficacy on hindpaw withdraw thresholds, hours 24-72 post-injection (allodynia in CCI mice; CCI mice, i.v. 5 μg): complete dissipation in the efficacy
time post-injection by which mice returned to allodynia (allodynia in CCI mice; CCI mice, i.v. 5 μg): ≤ 24 h
time to complete reversal from allodynia (allodynia in CCI mice; CCI mice, i.v. 5 μg, day 10 post-surgery): ≤ 2 h
duration of efficacy (allodynia in CCI mice; [2]): up to 2 hours
time of maximal efficacy post-injection (allodynia in CCI mice; [2]): 2 h
time to complete reversal from allodynia (allodynia in CCI mice; CCI mice, i.v. day 10 post surgery, dose not given in FIG. 1 legend): ≤ 1 h
effect on allodynia (hindpaw absolute threshold) (allodynia in CCI mice): completely reversed from allodynia
effect on allodynia (hindpaw absolute threshold) (allodynia in CCI mice; listed as pramipexole): completely abolishes allodynia
IL-1β release in the presence of LPS stimulation ([1]; 5 pg pramipexole plus LPS): significantly blunts
IL-1β release in the presence of LPS stimulation ([1]; 500 pg pramipexole plus LPS): significantly blunts
basal cellular levels of IL-1β ([1]; 5 pg): does not significantly alter
basal cellular levels of IL-1β ([1]; 500 pg): does not significantly alter
TLR4-IL-1b activation pathway ([1]; cell-based assay using human THP-1 cells): inhibits the TLR4-IL-1b activation pathway
